# Article PMC12136037, “Type II kinase inhibitors that target Parkinson’s disease–associated LRRK2” (Science Advances, 2025)
# Key:
# Assay in all cases: 33PanQinase kinome-wide selectivity profile (Reaction Biology)
# Format in all cases: biochemical
# 350 wild-type kinases [1] = target: T1, 350 wild-type kinases (Homo sapiens, UniProt P27037); conditions: kinase ACVR2A, ATP 3 µM, singlicate
# T1 construct: purchased Reaction Biology (assay service)
# Description: (§1) Compound RN341 was tested at two concentrations of 1 and 10 μM against a panel of 350 wild-type kinases in the ^33PanQinase assay. The assay was performed by Reaction Biology (www.reactionbiology.com/services/kinase-assays/kinase-panel-screening/).
# 350 wild-type kinases [2] = target: T2, 350 wild-type kinases (Homo sapiens, UniProt P49759); conditions: kinase CLK1, ATP 0,3 µM, singlicate
# T2 construct: purchased Reaction Biology (assay service)
# Description: as §1
# 350 wild-type kinases [3] = target: T3, 350 wild-type kinases (Homo sapiens, UniProt Q06187); conditions: kinase BTK, ATP 3 µM, singlicate
# T3 construct: purchased Reaction Biology (assay service)
# Description: as §1
# 350 wild-type kinases [4] = target: T4, 350 wild-type kinases (Homo sapiens, UniProt P36896); conditions: kinase ACVR1B, ATP 3 µM, singlicate
# T4 construct: purchased Reaction Biology (assay service)
# Description: as §1
# 350 wild-type kinases [5] = target: T5, 350 wild-type kinases (Homo sapiens, UniProt P41240); conditions: kinase CSK, ATP 1 µM, singlicate
# T5 construct: purchased Reaction Biology (assay service)
# Description: as §1
# 350 wild-type kinases [6] = target: T6, 350 wild-type kinases (Homo sapiens, UniProt Q8TDC3); conditions: kinase BRSK1, ATP 1 µM, singlicate
# T6 construct: purchased Reaction Biology (assay service)
# Description: as §1
# 350 wild-type kinases [7] = target: T7, 350 wild-type kinases (Homo sapiens, UniProt Q8IU85); conditions: kinase CAMK1D, ATP 0,3 µM, singlicate
# T7 construct: purchased Reaction Biology (assay service)
# Description: as §1
# 350 wild-type kinases [8] = target: T8, 350 wild-type kinases (Homo sapiens, UniProt P21127); conditions: kinase CDK11B/CycK, ATP 0,1 µM, singlicate
# T8 construct: purchased Reaction Biology (assay service)
# Description: as §1
# 350 wild-type kinases [9] = target: T9, 350 wild-type kinases (Homo sapiens, UniProt P48729); conditions: kinase CK1alpha1, ATP 0,3 µM, singlicate
# T9 construct: purchased Reaction Biology (assay service)
# Description: as §1
# 350 wild-type kinases [10] = target: T10, 350 wild-type kinases (Homo sapiens, UniProt Q00537); conditions: kinase CDK17/p35NCK, ATP 3 µM, singlicate
# T10 construct: purchased Reaction Biology (assay service)
# Description: as §1
# 350 wild-type kinases [11] = target: T11, 350 wild-type kinases (Homo sapiens, UniProt P07333); conditions: kinase CSF1R, ATP 0,3 µM, singlicate
# T11 construct: purchased Reaction Biology (assay service)
# Description: as §1
# 350 wild-type kinases [12] = target: T12, 350 wild-type kinases (Homo sapiens, UniProt Q9Y6M4); conditions: kinase CK1gamma3, ATP 0,1 µM, singlicate
# T12 construct: purchased Reaction Biology (assay service)
# Description: as §1
# 350 wild-type kinases [13] = target: T13, 350 wild-type kinases (Homo sapiens, UniProt P31749); conditions: kinase AKT1, ATP 1 µM, singlicate
# T13 construct: purchased Reaction Biology (assay service)
# Description: as §1
# 350 wild-type kinases [14] = target: T14, 350 wild-type kinases (Homo sapiens, UniProt Q09013); conditions: kinase DMPK, ATP 0,1 µM, singlicate
# T14 construct: purchased Reaction Biology (assay service)
# Description: as §1
# 350 wild-type kinases [15] = target: T15, 350 wild-type kinases (Homo sapiens, UniProt Q9UQM7); conditions: kinase CAMK2A, ATP 3 µM, singlicate
# T15 construct: purchased Reaction Biology (assay service)
# Description: as §1
# 350 wild-type kinases [16] = target: T16, 350 wild-type kinases (Homo sapiens, UniProt Q13882); conditions: kinase BRK, ATP 3 µM, singlicate
# T16 construct: purchased Reaction Biology (assay service)
# Description: as §1
# 350 wild-type kinases [17] = target: T17, 350 wild-type kinases (Homo sapiens, UniProt O00238); conditions: kinase BMPR1B, ATP 3 µM, singlicate
# T17 construct: purchased Reaction Biology (assay service)
# Description: as §1
# 350 wild-type kinases [18] = target: T18, 350 wild-type kinases (Homo sapiens, UniProt Q9HCP0); conditions: kinase CK1gamma1, ATP 0,1 µM, singlicate
# T18 construct: purchased Reaction Biology (assay service)
# Description: as §1
# 350 wild-type kinases [19] = target: T19, 350 wild-type kinases (Homo sapiens, UniProt Q9UIK4); conditions: kinase DAPK2, ATP 0,1 µM, singlicate
# T19 construct: purchased Reaction Biology (assay service)
# Description: as §1
# 350 wild-type kinases [20] = target: T20, 350 wild-type kinases (Homo sapiens, UniProt Q8N568); conditions: kinase DCAMKL2, ATP 1 µM, singlicate
# T20 construct: purchased Reaction Biology (assay service)
# Description: as §1
# 350 wild-type kinases [21] = target: T21, 350 wild-type kinases (Homo sapiens, UniProt O96017); conditions: kinase CHK2, ATP 1 µM, singlicate
# T21 construct: purchased Reaction Biology (assay service)
# Description: as §1
# 350 wild-type kinases [22] = target: T22, 350 wild-type kinases (Homo sapiens, UniProt P53355); conditions: kinase DAPK1, ATP 0,1 µM, singlicate
# T22 construct: purchased Reaction Biology (assay service)
# Description: as §1
# 350 wild-type kinases [23] = target: T23, 350 wild-type kinases (Homo sapiens, UniProt P50613); conditions: kinase CDK7/CycH/MAT1, ATP 1 µM, singlicate
# T23 construct: purchased Reaction Biology (assay service)
# Description: as §1
# 350 wild-type kinases [24] = target: T24, 350 wild-type kinases (Homo sapiens, UniProt P78527); conditions: kinase DNAPK, ATP 1 µM, singlicate
# T24 construct: purchased Reaction Biology (assay service)
# Description: as §1
# T18 sequence (Q9HCP0 whole entry): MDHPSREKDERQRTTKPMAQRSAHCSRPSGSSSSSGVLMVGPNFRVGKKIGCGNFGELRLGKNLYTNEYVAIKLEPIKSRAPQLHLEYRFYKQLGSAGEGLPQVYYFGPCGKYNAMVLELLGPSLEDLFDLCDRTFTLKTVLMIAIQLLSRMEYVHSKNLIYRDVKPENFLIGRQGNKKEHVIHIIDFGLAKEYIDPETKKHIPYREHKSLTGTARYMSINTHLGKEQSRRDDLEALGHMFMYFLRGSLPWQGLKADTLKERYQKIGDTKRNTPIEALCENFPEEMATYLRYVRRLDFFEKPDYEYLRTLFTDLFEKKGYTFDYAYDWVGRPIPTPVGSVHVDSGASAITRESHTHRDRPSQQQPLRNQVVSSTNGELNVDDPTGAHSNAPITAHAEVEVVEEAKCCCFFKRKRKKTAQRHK
# T21 sequence (O96017 whole entry): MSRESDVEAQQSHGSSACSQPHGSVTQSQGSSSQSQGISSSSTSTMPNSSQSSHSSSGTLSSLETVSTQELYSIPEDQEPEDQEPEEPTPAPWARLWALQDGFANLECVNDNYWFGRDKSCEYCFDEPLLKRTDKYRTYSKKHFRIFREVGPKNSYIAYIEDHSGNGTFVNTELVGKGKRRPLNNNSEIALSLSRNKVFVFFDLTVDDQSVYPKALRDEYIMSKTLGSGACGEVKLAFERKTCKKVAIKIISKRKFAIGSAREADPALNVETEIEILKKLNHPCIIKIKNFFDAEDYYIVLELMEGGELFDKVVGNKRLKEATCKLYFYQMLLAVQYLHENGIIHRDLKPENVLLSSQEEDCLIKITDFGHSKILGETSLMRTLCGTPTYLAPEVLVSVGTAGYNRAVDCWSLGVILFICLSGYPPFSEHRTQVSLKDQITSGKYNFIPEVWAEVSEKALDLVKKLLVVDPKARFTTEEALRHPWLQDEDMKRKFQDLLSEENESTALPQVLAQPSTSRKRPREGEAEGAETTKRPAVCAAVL
# T13 sequence (P31749 whole entry): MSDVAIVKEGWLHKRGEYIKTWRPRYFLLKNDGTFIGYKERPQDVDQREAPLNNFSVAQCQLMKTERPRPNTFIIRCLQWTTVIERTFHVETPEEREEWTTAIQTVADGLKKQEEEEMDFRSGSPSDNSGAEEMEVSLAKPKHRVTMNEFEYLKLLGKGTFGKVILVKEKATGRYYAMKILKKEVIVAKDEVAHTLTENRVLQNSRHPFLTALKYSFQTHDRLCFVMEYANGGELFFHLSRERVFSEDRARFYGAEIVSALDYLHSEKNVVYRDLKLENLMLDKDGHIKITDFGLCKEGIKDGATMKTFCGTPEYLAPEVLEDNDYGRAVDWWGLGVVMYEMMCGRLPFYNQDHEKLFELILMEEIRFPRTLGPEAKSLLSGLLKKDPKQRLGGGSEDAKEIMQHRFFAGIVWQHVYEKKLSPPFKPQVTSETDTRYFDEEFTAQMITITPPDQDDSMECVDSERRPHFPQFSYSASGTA
# T12 sequence (Q9Y6M4 whole entry): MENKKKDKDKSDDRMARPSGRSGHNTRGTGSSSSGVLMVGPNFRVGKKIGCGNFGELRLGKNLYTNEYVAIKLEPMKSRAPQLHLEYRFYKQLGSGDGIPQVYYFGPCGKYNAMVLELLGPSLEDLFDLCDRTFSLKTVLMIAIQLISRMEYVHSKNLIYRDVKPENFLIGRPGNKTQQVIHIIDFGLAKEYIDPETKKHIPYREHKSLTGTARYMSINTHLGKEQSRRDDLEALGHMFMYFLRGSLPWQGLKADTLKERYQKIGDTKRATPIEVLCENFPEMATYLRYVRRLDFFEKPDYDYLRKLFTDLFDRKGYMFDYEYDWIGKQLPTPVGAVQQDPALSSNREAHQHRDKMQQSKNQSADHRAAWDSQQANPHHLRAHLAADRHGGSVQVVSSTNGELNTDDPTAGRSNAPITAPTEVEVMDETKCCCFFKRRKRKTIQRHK
# T5 sequence (P41240 whole entry): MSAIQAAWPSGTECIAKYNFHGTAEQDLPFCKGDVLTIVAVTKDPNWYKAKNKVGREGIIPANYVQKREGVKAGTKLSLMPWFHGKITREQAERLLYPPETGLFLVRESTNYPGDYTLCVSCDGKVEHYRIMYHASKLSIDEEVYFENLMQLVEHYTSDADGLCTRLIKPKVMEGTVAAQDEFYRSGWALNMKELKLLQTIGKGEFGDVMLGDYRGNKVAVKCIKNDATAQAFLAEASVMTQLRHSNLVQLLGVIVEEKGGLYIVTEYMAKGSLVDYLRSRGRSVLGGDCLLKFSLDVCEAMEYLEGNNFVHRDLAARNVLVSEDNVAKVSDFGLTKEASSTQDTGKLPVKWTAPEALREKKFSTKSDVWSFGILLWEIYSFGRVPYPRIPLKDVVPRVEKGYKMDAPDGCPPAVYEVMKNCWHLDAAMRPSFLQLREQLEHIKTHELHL
# T23 sequence (P50613 whole entry): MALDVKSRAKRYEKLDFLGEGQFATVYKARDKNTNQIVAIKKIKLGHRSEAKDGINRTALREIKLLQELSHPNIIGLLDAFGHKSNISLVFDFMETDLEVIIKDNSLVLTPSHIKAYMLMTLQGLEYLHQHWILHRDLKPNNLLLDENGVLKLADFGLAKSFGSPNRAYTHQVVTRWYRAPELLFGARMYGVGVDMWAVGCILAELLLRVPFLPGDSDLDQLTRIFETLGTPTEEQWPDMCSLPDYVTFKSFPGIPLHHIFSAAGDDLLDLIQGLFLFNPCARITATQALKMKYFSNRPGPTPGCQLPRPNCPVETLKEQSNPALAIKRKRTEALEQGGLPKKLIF
# T14 sequence (Q09013 whole entry): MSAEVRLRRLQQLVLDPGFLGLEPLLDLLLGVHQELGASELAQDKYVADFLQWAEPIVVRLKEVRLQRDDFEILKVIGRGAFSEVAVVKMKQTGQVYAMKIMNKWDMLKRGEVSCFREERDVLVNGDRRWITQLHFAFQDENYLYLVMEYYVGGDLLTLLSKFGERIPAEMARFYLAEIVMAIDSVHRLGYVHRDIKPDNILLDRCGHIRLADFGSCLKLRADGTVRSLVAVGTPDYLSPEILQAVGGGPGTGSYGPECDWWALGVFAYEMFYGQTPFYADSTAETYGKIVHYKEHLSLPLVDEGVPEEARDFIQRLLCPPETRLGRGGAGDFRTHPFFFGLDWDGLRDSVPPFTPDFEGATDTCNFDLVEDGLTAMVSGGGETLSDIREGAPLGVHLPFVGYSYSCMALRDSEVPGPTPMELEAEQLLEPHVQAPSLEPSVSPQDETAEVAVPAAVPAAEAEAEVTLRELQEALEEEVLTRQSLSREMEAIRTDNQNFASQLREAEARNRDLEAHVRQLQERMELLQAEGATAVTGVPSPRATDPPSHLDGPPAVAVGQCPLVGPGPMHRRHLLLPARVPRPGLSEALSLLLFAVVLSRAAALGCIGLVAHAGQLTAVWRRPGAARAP
# T9 sequence (P48729 whole entry): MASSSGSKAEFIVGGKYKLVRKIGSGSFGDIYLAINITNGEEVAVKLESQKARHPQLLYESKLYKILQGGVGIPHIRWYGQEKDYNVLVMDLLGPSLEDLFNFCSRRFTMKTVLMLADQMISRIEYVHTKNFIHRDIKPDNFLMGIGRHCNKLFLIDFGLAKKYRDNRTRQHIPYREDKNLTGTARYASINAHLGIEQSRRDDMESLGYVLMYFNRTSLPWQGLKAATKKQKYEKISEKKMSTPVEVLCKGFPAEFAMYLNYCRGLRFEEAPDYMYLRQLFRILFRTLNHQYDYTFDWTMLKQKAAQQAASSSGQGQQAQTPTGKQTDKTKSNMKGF
# T17 sequence (O00238 14-502): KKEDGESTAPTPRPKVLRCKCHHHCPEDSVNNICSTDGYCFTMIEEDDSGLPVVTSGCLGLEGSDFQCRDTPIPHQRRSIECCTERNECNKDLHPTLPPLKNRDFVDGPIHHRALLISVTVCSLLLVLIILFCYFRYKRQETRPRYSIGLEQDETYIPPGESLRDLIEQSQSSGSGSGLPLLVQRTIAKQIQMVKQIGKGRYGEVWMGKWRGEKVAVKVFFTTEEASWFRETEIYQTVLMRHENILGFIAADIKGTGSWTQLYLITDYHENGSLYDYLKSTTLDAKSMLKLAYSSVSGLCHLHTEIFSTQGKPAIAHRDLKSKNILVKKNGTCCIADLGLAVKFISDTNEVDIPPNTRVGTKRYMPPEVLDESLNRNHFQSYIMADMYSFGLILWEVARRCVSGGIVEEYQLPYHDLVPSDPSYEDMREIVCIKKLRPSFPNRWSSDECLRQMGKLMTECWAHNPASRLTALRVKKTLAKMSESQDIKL
# T1 sequence (P27037 20-513): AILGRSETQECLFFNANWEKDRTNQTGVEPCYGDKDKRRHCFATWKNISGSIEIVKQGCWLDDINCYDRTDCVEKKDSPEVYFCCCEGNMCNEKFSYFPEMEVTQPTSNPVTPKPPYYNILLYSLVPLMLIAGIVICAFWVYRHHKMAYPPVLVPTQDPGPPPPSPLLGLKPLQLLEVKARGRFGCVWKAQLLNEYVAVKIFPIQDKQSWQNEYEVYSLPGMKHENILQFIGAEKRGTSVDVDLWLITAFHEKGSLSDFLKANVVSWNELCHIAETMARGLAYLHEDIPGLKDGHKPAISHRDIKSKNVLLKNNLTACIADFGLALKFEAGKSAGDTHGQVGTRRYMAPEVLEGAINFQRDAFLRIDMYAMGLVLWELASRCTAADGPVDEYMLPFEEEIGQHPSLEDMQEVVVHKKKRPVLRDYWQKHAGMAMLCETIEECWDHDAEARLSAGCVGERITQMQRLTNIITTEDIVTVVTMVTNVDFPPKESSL
structure (smiles),measurement,setting,value
CCSc1nc(NC)c2c(-c3cccc(NC(=O)Nc4cc(C(C)(C)C)nn4-c4ccc(C)cc4)c3)c[nH]c2n1 [Compound 32],"Residual activity (% of control), ACVR2A",350 wild-type kinases [1]; Assay Conc. 1.0E-05 M,92 % of control
same,"Residual activity (% of control), ACVR2A",350 wild-type kinases [1]; Assay Conc. 1.0E-06 M,102 % of control
same,"Residual activity (% of control), CLK1",350 wild-type kinases [2]; Assay Conc. 1.0E-05 M,54 % of control
same,"Residual activity (% of control), CLK1",350 wild-type kinases [2]; Assay Conc. 1.0E-06 M,86 % of control
same,"Residual activity (% of control), BTK",350 wild-type kinases [3]; Assay Conc. 1.0E-05 M,37 % of control
same,"Residual activity (% of control), BTK",350 wild-type kinases [3]; Assay Conc. 1.0E-06 M,80 % of control
same,"Residual activity (% of control), ACVR1B",350 wild-type kinases [4]; Assay Conc. 1.0E-05 M,76 % of control
same,"Residual activity (% of control), ACVR1B",350 wild-type kinases [4]; Assay Conc. 1.0E-06 M,93 % of control
same,"Residual activity (% of control), CSK",350 wild-type kinases [5]; Assay Conc. 1.0E-05 M,69 % of control
same,"Residual activity (% of control), CSK",350 wild-type kinases [5]; Assay Conc. 1.0E-06 M,97 % of control
same,"Residual activity (% of control), BRSK1",350 wild-type kinases [6]; Assay Conc. 1.0E-05 M,89 % of control
same,"Residual activity (% of control), BRSK1",350 wild-type kinases [6]; Assay Conc. 1.0E-06 M,101 % of control
same,"Residual activity (% of control), CAMK1D",350 wild-type kinases [7]; Assay Conc. 1.0E-05 M,101 % of control
same,"Residual activity (% of control), CAMK1D",350 wild-type kinases [7]; Assay Conc. 1.0E-06 M,113 % of control
same,"Residual activity (% of control), CDK11B/CycK",350 wild-type kinases [8]; Assay Conc. 1.0E-05 M,99 % of control
same,"Residual activity (% of control), CDK11B/CycK",350 wild-type kinases [8]; Assay Conc. 1.0E-06 M,96 % of control
same,"Residual activity (% of control), CK1alpha1",350 wild-type kinases [9]; Assay Conc. 1.0E-05 M,98 % of control
same,"Residual activity (% of control), CK1alpha1",350 wild-type kinases [9]; Assay Conc. 1.0E-06 M,108 % of control
same,"Residual activity (% of control), CDK17/p35NCK",350 wild-type kinases [10]; Assay Conc. 1.0E-05 M,53 % of control
same,"Residual activity (% of control), CDK17/p35NCK",350 wild-type kinases [10]; Assay Conc. 1.0E-06 M,89 % of control
same,"Residual activity (% of control), CSF1R",350 wild-type kinases [11]; Assay Conc. 1.0E-05 M,71 % of control
same,"Residual activity (% of control), CSF1R",350 wild-type kinases [11]; Assay Conc. 1.0E-06 M,100 % of control
same,"Residual activity (% of control), CK1gamma3",350 wild-type kinases [12]; Assay Conc. 1.0E-05 M,99 % of control
same,"Residual activity (% of control), CK1gamma3",350 wild-type kinases [12]; Assay Conc. 1.0E-06 M,106 % of control
same,"Residual activity (% of control), AKT1",350 wild-type kinases [13]; Assay Conc. 1.0E-05 M,91 % of control
same,"Residual activity (% of control), AKT1",350 wild-type kinases [13]; Assay Conc. 1.0E-06 M,103 % of control
same,"Residual activity (% of control), DMPK",350 wild-type kinases [14]; Assay Conc. 1.0E-05 M,69 % of control
same,"Residual activity (% of control), DMPK",350 wild-type kinases [14]; Assay Conc. 1.0E-06 M,106 % of control
same,"Residual activity (% of control), CAMK2A",350 wild-type kinases [15]; Assay Conc. 1.0E-05 M,63 % of control
same,"Residual activity (% of control), CAMK2A",350 wild-type kinases [15]; Assay Conc. 1.0E-06 M,94 % of control
same,"Residual activity (% of control), BRK",350 wild-type kinases [16]; Assay Conc. 1.0E-05 M,79 % of control
same,"Residual activity (% of control), BRK",350 wild-type kinases [16]; Assay Conc. 1.0E-06 M,109 % of control
same,"Residual activity (% of control), BMPR1B",350 wild-type kinases [17]; Assay Conc. 1.0E-05 M,102 % of control
same,"Residual activity (% of control), BMPR1B",350 wild-type kinases [17]; Assay Conc. 1.0E-06 M,109 % of control
same,"Residual activity (% of control), CK1gamma1",350 wild-type kinases [18]; Assay Conc. 1.0E-05 M,97 % of control
same,"Residual activity (% of control), CK1gamma1",350 wild-type kinases [18]; Assay Conc. 1.0E-06 M,92 % of control
same,"Residual activity (% of control), DAPK2",350 wild-type kinases [19]; Assay Conc. 1.0E-05 M,88 % of control
same,"Residual activity (% of control), DAPK2",350 wild-type kinases [19]; Assay Conc. 1.0E-06 M,93 % of control
same,"Residual activity (% of control), DCAMKL2",350 wild-type kinases [20]; Assay Conc. 1.0E-05 M,91 % of control
same,"Residual activity (% of control), DCAMKL2",350 wild-type kinases [20]; Assay Conc. 1.0E-06 M,103 % of control
same,"Residual activity (% of control), CHK2",350 wild-type kinases [21]; Assay Conc. 1.0E-05 M,64 % of control
same,"Residual activity (% of control), CHK2",350 wild-type kinases [21]; Assay Conc. 1.0E-06 M,90 % of control
same,"Residual activity (% of control), DAPK1",350 wild-type kinases [22]; Assay Conc. 1.0E-05 M,78 % of control
same,"Residual activity (% of control), DAPK1",350 wild-type kinases [22]; Assay Conc. 1.0E-06 M,95 % of control
same,"Residual activity (% of control), CDK7/CycH/MAT1",350 wild-type kinases [23]; Assay Conc. 1.0E-05 M,75 % of control
same,"Residual activity (% of control), CDK7/CycH/MAT1",350 wild-type kinases [23]; Assay Conc. 1.0E-06 M,100 % of control
same,"Residual activity (% of control), DNAPK",350 wild-type kinases [24]; Assay Conc. 1.0E-05 M,82 % of control
same,"Residual activity (% of control), DNAPK",350 wild-type kinases [24]; Assay Conc. 1.0E-06 M,99 % of control
